Data from patent publication US20240122890A1, “USE OF EXOGENOUS KETONE ESTERS TO INDUCE WEIGHT LOSS IN MAMMALS” (Buck Institute for Research on Aging, priority 2021, published 2024).

Legend:
[1] = Waking body weight with daily ketone ester consumption in a person with obesity; format: in vivo, human; conditions: for Weight (waking body weight): daily 25 g KE
Experimental: This example describes the effect of daily ketone ester consumption in a person with obesity (BMI=42.5 kg/m^2). The subject began consuming one 25 g serving of KE each morning on Nov. 15, 2021, and maintained daily consumption each morning for 7 weeks. The KE was in a commercially available consumer-friendly beverage formulation (Juvenescence, NJ, USA). Body weight was recorded by the subject after waking each morning (see, e.g., Table 1 and FIG. 3). […] The highest body weight in this period was on Nov. 15, 2021 (288 lbs), and the lowest was on Day Dec. 21, 2021 (254 lbs), giving a total weight loss of 34 lbs (11.8% of starting body mass)

[2] = Body weight of mice swapped to a diet containing 20% KE; format: in vivo, C57/BL6 mice; conditions: diet containing 20% KE (by weight); n=5 female
From the text: Male (n=10) and female (n=10) C57/BL6 mice were fed control diet for one week. The next week n=5 male and n=5 female mice were swapped to a diet containing 20% KE (by weight) mixed into a custom-made diet.

[3] = 25 g KE each morning, highest to lowest body weight

SMILES: CCCCCC(=O)OCC[C@@H](C)OC(=O)CCCCC [KE, bis hexanoyl (R)-1,3-butanediol]
- lowest body weight in this period ([1]; 25 g KE each morning, Dec. 21, 2021): 254 lbs
- highest body weight in this period ([1]; 25 g KE each morning, Nov. 15, 2021): 288 lbs
- total weight loss [1, 3]: 34 lbs
- total weight loss, % of starting body mass [1, 3]: 11.8%
- Weight (waking body weight) ([1]; 1 Dec. 2021): 272.5 lbs
- Weight (waking body weight) ([1]; 1 Jan. 2022): 258 lbs
- Weight (waking body weight) ([1]; 2 Dec. 2021): 272.5 lbs
- Weight (waking body weight) ([1]; 2 Jan. 2022): 257 lbs
- Weight (waking body weight) ([1]; 3 Dec. 2021): 272 lbs
- Weight (waking body weight) ([1]; 3 Jan. 2022): 255.5 lbs
- Weight (waking body weight) ([1]; 4 Dec. 2021): 271 lbs
- Weight (waking body weight) ([1]; 4 Jan. 2022): 255.5 lbs
- Weight (waking body weight) ([1]; 5 Dec. 2021): 270 lbs
- Weight (waking body weight) ([1]; 5 Jan. 2022): 256 lbs
- Weight (waking body weight) ([1]; 6 Dec. 2021): 268.5 lbs
- Weight (waking body weight) ([1]; 7 Dec. 2021): 267.5 lbs
- Weight (waking body weight) ([1]; 8 Dec. 2021): 267 lbs
- Weight (waking body weight) ([1]; 9 Dec. 2021): 266 lbs
- Weight (waking body weight) ([1]; 10 Dec. 2021): 265.5 lbs
- Weight (waking body weight) ([1]; 11 Dec. 2021): 264.5 lbs
- Weight (waking body weight) ([1]; 12 Dec. 2021): 264 lbs
- Weight (waking body weight) ([1]; 13 Dec. 2021): 262.5 lbs
- Weight (waking body weight) ([1]; 14 Dec. 2021): 261.5 lbs
- Weight (waking body weight) ([1]; 15 Dec. 2021): 260.5 lbs
- Weight (waking body weight) ([1]; 15 Nov. 2021): 288 lbs
- Weight (waking body weight) ([1]; 16 Dec. 2021): 258 lbs
- Weight (waking body weight) ([1]; 16 Nov. 2021): 286.5 lbs
- Weight (waking body weight) ([1]; 17 Dec. 2021): 256 lbs
- Weight (waking body weight) ([1]; 17 Nov. 2021): 284 lbs
- Weight (waking body weight) ([1]; 18 Dec. 2021): 256 lbs
- Weight (waking body weight) ([1]; 18 Nov. 2021): 283 lbs
- Weight (waking body weight) ([1]; 19 Dec. 2021): 255 lbs
- Weight (waking body weight) ([1]; 19 Nov. 2021): 283 lbs
- Weight (waking body weight) ([1]; 20 Dec. 2021): 255 lbs
- Weight (waking body weight) ([1]; 20 Nov. 2021): 282.5 lbs
- Weight (waking body weight) ([1]; 21 Dec. 2021): 254 lbs
- Weight (waking body weight) ([1]; 21 Nov. 2021): 281.5 lbs
- Weight (waking body weight) ([1]; 22 Dec. 2021): 256 lbs
- Weight (waking body weight) ([1]; 22 Nov. 2021): 279.5 lbs
- Weight (waking body weight) ([1]; 23 Dec. 2021): 258 lbs
- Weight (waking body weight) ([1]; 23 Nov. 2021): 279 lbs
- Weight (waking body weight) ([1]; 24 Dec. 2021): 257 lbs
- Weight (waking body weight) ([1]; 24 Nov. 2021): 278 lbs
- Weight (waking body weight) ([1]; 25 Dec. 2021): 258 lbs
- Weight (waking body weight) ([1]; 25 Nov. 2021 (first line of this date)): 278 lbs
- Weight (waking body weight) ([1]; 25 Nov. 2021 (second line of this date)): 276.5 lbs
- Weight (waking body weight) ([1]; 26 Dec. 2021): 260 lbs
- Weight (waking body weight) ([1]; 26 Nov. 2021): 275 lbs
- Weight (waking body weight) ([1]; 27 Dec. 2021): 258 lbs
- Weight (waking body weight) ([1]; 27 Nov. 2021): 275 lbs
- Weight (waking body weight) ([1]; 28 Dec. 2021): 257 lbs
- Weight (waking body weight) ([1]; 28 Nov. 2021): 273.5 lbs
- Weight (waking body weight) ([1]; 29 Dec. 2021): 258 lbs
- Weight (waking body weight) ([1]; 29 Nov. 2021): 273 lbs
- Weight (waking body weight) ([1]; 30 Dec. 2021): 260.5 lbs
- Weight (waking body weight) ([1]; 30 Nov. 2021): 273 lbs
- Weight (waking body weight) ([1]; 31 Dec. 2021): 260 lbs
- deaths [2]: Two female animals died due to rapid weight loss
